Laboratory results taken from patent US20250297134A1, “HIGH RATE BULK OXIDE CMP COMPOSITION” (ENTEGRIS, INC., priority 2024, published 2025).

assay: Aqueous solubility of hydroxamic acid compounds; format: physicochemical; details: deionized water, pH 5.5, stirred overnight, filtered, 1H NMR quantification
Method: The aqueous solubility was measured and the partition coefficient was computed for nineteen hydroxamic acid compounds. To measure the aqueous solubility, a supersaturated solution of each hydroxamic acid compound was prepared in deionized water. The pH was adjusted to 5.5 using nitric acid and the supersaturated solution was stirred overnight. Excess solids were removed via filtration and the hydroxamic acid compound in solution was quantified using 1H NMR with a t-BuOH standard. […] It was not possible to achieve super saturation for the 2-furohydroxamic acid compound. […] The partition coefficients were computed using the procedure described in Wildman, Scott A. and Crippen, Gordon M., Prediction of Physicochemical Parameters by Atomic Contributions, J. Chem. Inf. Comput. Sci. 1999, 39, 5, 868-873. Briefly, an atom type classification system was used for an atom-based calculation of the partition coefficient (log P) and the molar refractivity (MR).

Aqueous Solubility [%]	Compound
0.4	COc1ccc(C(=O)NO)cc1 [4-Methoxybenzohydroxamic acid]
0.2	Cc1ccc(CCCC(=O)NO)cc1 [4-(p-tolyl)butyrohydroxamic acid]
1.6	O=C(CCCc1ccccc1)NO [4-Phenylbutyrl hydroxamic acid]
3.0	O=C(NO)c1ccccn1 [Picolinichydroxamic acid]
1.8	O=C(COCc1ccccc1)NO [Benzyloxyacetohydroxamic acid]
0.6	O=C(C=Cc1ccccc1)NO [Cinnamohydroxamic acid]
4.8	CCCCCC(=O)NO [Hexanohydroxamic acid]
1.0	4-Fluoro hydroxamic acid
0.2	CCCCCCCC(=O)NO [Octanohydroxamic acid]
3.6	O=C(NO)c1ccccc1 [Benzohydroxamic acid]
1.5	O=C(Cc1ccccc1)NO [N-hydroxy-2-phenyl-acetamide]
1.3	3-Fluoro hydroxamic acid
1.0	2-Fluoro hydroxamic acid
0.5	Cc1ccc(C(=O)NO)cc1 [4-Methylbenzohydroxamic acid]
0.5	N#Cc1ccc(C(=O)NO)cc1 [4-Cyano-N-hydroxybenzamide]
1.1	COc1ccccc1C(=O)NO [2-Methoxybenzohydroxamic acid]
>17.8	O=C(NO)c1ccco1 [2-furohydroxamic acid]
3.3	Cc1ccccc1C(=O)NO [2-Methylbenzohydroxamic acid]
